Laboratory results taken from patent EP4782453A1 (Beyang Therapeutics Co., Ltd., priority 2023, dated 2025).

What was measured:
Type in all cases: cell-based
[1] = tested on: KG-1a (wild-type MLL); test: Inhibition of proliferation of human tumor cells (Alamar Blue, 7 days), KG-1a control cell line; details: 168 h, KG-1a cells (wild-type MLL, control cell line), method calls the value GI50
Outline: (§1)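 Suspension cells were plated, dosed the same day with a graded compound series, and incubated seven days at 37°C under 5% CO2. Growth was then measured by Alamar Blue fluorescence, and the concentration halving proliferation (GI50) was calculated relative to Day 0 and Day 7 vehicle controls.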

[2] = tested on: MEIS1 gene expression; test: Inhibition of MEIS1 gene expression in human tumor cells (qRT-PCR), MV-4-11; details: MV4-11, MV-4-11 (carrying MLL-AF4), 48 hours of incubation, relative MEIS1 gene expression vs GAPDH, read-out: MV-4-11 MEISI EC50
Outline: (§2)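 MV-4-11 (MLL-AF4; IMDM, 10% FBS), MOLM-13 (MLL-AF9) and OCI-AML3 (NPM1c) (RPMI-1640, 20% FBS) seeded at 100,000 cells/well and treated 48 h with serially diluted compound. MEIS1 mRNA measured by one-step probe qRT-PCR from total RNA, triplicates, GAPDH primer/probe included; EC50 for inhibition of relative MEIS1 expression.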

[3] = tested on: MEIS1 gene expression; test: Inhibition of MEIS1 gene expression in human tumor cells (qRT-PCR), OCI-AML3; details: OCI-AML-3, OCI-AML3 (carrying NPM1c), 48 hours of incubation, relative MEIS1 gene expression vs GAPDH
Description: Experimental Example 3: Evaluation of Inhibitory Activity of Compounds Against MEISI Gene Expression in Human Tumor Cells
The effect of test samples on MEIS1 gene expression in vitro cultured human leukemia cells MV-4-11 (carrying MLL-AF4), MOLM-13 (carrying MLL-AF9), and OCI-AML3 (carrying NPM1c) was studied.
• Human acute lymphoblastic leukemia cells MV-4-11, purchased from American Type Culture Collection, Catalog Number: CRL-9591; • Human acute myeloid leukemia cells MOLM-13, purchased from COBIOER BIOSCIENCES CO., LTD, Catalog Number: CBP60678; • Human acute myeloid leukemia cells OCI-AML3, purchased from COBIOER BIOSCIENCES CO., LTD, Catalog Number: CBP60817; • MEIS1 Primer/Probe, purchased from IDT, Catalog Number: 40831613; and • GAPDH Primer/Probe, purchased from IDT, Catalog Number: 22214836.
MV-4-11 cells were cultured in an IMDM medium containing 10% fetal bovine serum, or MOLM-13 and OCI-AML3 cells were cultured in an RPMI-1640 medium containing 20% fetal bovine serum, each supplemented with 100 U·mL^-1 penicillin and 100 µg·mL^-1 streptomycin. These cells were cultured at 37°C with 5% CO2. The suspensions of individual cell lines were prepared in their respective media and seeded into 48-well plates at a density of 100,000 cells/well. On the day of the experiment, a compound stock solution was diluted in a 6-fold gradient using DMSO. Each gradient-diluted stock solution was then further diluted 250-fold with a complete medium to prepare a series of working solutions at different concentrations. Next, 250 µL of working solution (containing the complete medium with a 2-fold serial concentration of the test compound or a positive control compound, or containing a control complete medium) was added to each well. After 48 hours of incubation, cells from the 48-well plate were collected into 1 mL centrifuge tubes, centrifuged at 1000 rpm for 5 minutes, and the complete medium was removed. Cells were washed twice with 1 mL PBS and centrifuged to remove PBS. Total RNA was extracted using the RNeasy Mini Kit (250) (QIAGEN, 74106). The threshold cycle (Ct) value for gene expression was determined using the HiScript II U+ One Step qRT-PCR Probe Kit (Vazyme) (Vazyme, Q223-01), with 3 replicates per sample. The prepared reaction mixture was placed in an ABI 7500 real-time PCR instrument, and the reaction proceeded following the procedures below. [formula]
Next, for the relative MEIS1 gene expression, the concentration (EC50) that inhibits 50% of relative MEIS1 gene expression was calculated using GraphPad Prism 8 software.

[4] = tested on: MEIS1 gene expression; test: Inhibition of MEIS1 gene expression in human tumor cells (qRT-PCR), MOLM-13; details: MOLM-13 (carrying MLL-AF9), 48 hours of incubation, relative MEIS1 gene expression vs GAPDH
Outline: as §2

[5] = tested on: MV-4-11 (carrying MLL-AF4); test: Inhibition of proliferation of human tumor cells (Alamar Blue, 7 days), MV-4-11; details: Homo sapiens, MV4-11, 168 h, MV-4-11 cells (carrying MLL-AF4), method calls the value GI50
Outline: as §1

[6] = tested on: MOLM-13 (carrying MLL-AF9); test: Inhibition of proliferation of human tumor cells (Alamar Blue, 7 days), MOLM-13; details: Homo sapiens, 168 h, MOLM-13 cells (carrying MLL-AF9), method calls the value GI50
Outline: as §1

CCN(C(=O)c1cc(F)ccc1-c1cc(C2CN([C@H](CCCN3C[C@H]4C[C@@H]3CO4)C(C)C)C2)cn2c(C)ncc12)C(C)C [Example 379, N-ethyl-5-fluoro-2-(3-methyl-6-{1-[(3R)-2-methyl-6-[(1R,4R)-2-oxa-5-azabicyclo[2.2.1]heptan-5-yl]hexan-3-yl]azacyclobutan-3-yl}imidazo[1,5-a]pyridin-8-yl)-N-(isopropyl)benzamide]
IC50 [1]: 11.5 µM | EC50 [2]: 2.4 nM | EC50 [3]: 7.5 nM | EC50 [4]: 2 nM | IC50 [5]: 0.4 nM | IC50 [6]: 2.5 nM

CC(=O)N1CCN(CCC[C@H](C(C)C)N2CC(c3cc(-c4ccc(F)cc4C(=O)N4CCOC[C@H]4C)c4c(F)nc(C)n4c3)C2)CC1 [Example 265]
IC50 [1]: 20 µM | EC50 [2]: 54 nM | EC50 [3]: 70 nM | EC50 [4]: 38 nM | IC50 [5]: 8.6 nM | IC50 [6]: 25 nM

Cc1nc(F)c2c(-c3ccc(F)cc3C(=O)N3CCOC[C@H]3C)cc(C3CN([C@H](CO[C@@H]4CCCN(C)C4)C(C)C)C3)cn12 [Example 297-1, (3R)-4-[5-fluoro-2-(1-fluoro-3-methyl-6-{1-[(2S)-3-methyl-1-{[(3R)-1-methylpiperidin-3-yl]oxy}butan-2-yl]azacyclobutan-3-yl}imidazo[1,5-a]pyridin-8yl)benzoyl]-3-methylmorpholine]
EC50 [2]: 32 nM | EC50 [3]: 34 nM | EC50 [4]: 12 nM | IC50 [5]: 12 nM | IC50 [6]: 36 nM

CCN(C(=O)c1cc(F)ccc1-c1cc(C2CN([C@H](CCCN3CCN(C)CC3)C(C)C)C2)cn2c(C)ncc12)C(C)C [Example 310-2, N-ethyl-5-fluoro-2-(3-methyl-6-{1-[(3R)-2-methyl-6-(4-methylpiperazin-1-yl)hexan-3-yl]azacyclobutan-3-yl}imidazo[1,5-a]pyridin-8-yl)-N-(isopropyl)benzamide]
EC50 [2]: 5 nM | EC50 [3]: 12 nM | EC50 [4]: 6.5 nM | IC50 [5]: 0.97 nM | IC50 [6]: 6.2 nM

CCN1CCN(CCC[C@H](C(C)C)N2CC(c3cc(-c4ccc(F)cc4C(=O)N4CCOC[C@H]4C)c4cnc(C)n4c3)C2)CC1 [Example 324-2]
EC50 [2]: 7.3 nM | EC50 [3]: 9.5 nM | EC50 [4]: 1.3 nM | IC50 [5]: 1.3 nM | IC50 [6]: 9.2 nM

CC[C@@H](C1CCN(C(C)=O)CC1)N1CC(c2cc(-c3ccc(F)cc3C(=O)N3CCOC[C@H]3C)c3c(F)nc(C)n3c2)C1 [Example 280-1, 1-{4-[(1S)-1-[3-(1-fluoro-8-{4-fluoro-2-[(3R)-3-methylmorpholin-4-carbonyl]phenyl}-3-methylimidazo[1,5-a]pyridin-6-yl)azacyclobutan-1-yl]propyl]piperidin-1-yl}ethan-1-one]
EC50 [2]: 61 nM | EC50 [3]: 34 nM | EC50 [4]: 23 nM | IC50 [5]: 6.9 nM | IC50 [6]: 27 nM

CCN(C(=O)c1cc(F)ccc1-c1cc(C2CN([C@H](CN3CCN(CCO)CC3)C(C)C)C2)cn2c(C)ncc12)C(C)C [Example 431, N-ethyl-5-fluoro-2-(6-{1-[(2S)-1-[4-(2-hydroxylethyl)piperazin-1-yl]-3-methylbutan-2-yl]azacyclobutan-3-yl}-3methylimidazo[1,5-a]pyridin-8-yl)-N-(isopropyl)benzamide]
EC50 [2]: 5.5 nM | EC50 [3]: 33 nM | EC50 [4]: 4.6 nM | IC50 [5]: 4.7 nM | IC50 [6]: 15 nM

CCN(C(=O)c1cc(F)ccc1-c1cc(C2CN([C@H](CCCN3CCN(C)CC3)C(C)C)C2)cn2c(C)nc(F)c12)C(C)C [Example 312-2]
EC50 [2]: 5.7 nM | EC50 [3]: 3.9 nM | EC50 [4]: 2.5 nM | IC50 [5]: 0.91 nM | IC50 [6]: 5.3 nM
